Series [1] deals with neointimal proliferation after vascular injury. Particulars: rabbit carotid artery air-drying injury; cited from earlier work.
Series [2] has as its system human cultured vascular smooth muscle cells. Particulars: cited from earlier work.
The subject of series [3] is rat cultured vascular smooth muscle cells. Particulars: cited from earlier work.

Structures can show the parent of a compound that is named as a salt. Where no end group is shown, it is not given here.

Take `CC(C)(C)c1ccc(C(=O)NCCC2COc3ccc(C(=N)N)cc32)cc1` (stereo not shown) (as salt: salt) [Example 1b, 4-tert-Butyl-N-(2-[5-carbamimidoyl-2,3-dihydrobenzofuran-3-yl]ethyl)benzamide]: the melting point was in the range of 167 to 169 °C.

`CC(C)(CN)c1ccc(C(=O)NCCC2COc3ccc(C(=N)N)cc32)cc1` (stereo not shown) (as salt: salt) [Example 1c, 4-(2-Amino-1,1-dimethylethyl)-N-(2-[5-carbamimidoyl-2,3-dihydrobenzofuran-3-yl]ethyl)benzamide] yielded a melting point of 209 to 210 °C.

As for `CC(=N)N1CC[C@H](Oc2ccc([C@H](Cc3ccc4ccc(C(=N)N)cc4c3)C(=O)O)cc2)C1` [DX-9065a], the neointimal proliferation result in series [1] is reported as “less neointimal proliferation”.

For the compound `N=C(N)c1ccc2c(c1)C(CCNC(=O)c1ccc(-c3ccccn3)s1)CO2` (stereo not shown) [Example 1a, 5-(Pyridin-2-yl)-thiophene-2-carboxylic acid (2-[5-carbamimidoyl-2,3-dihydrobenzofuran-3-yl]ethyl)amide], the melting point lay within 54 to 56 °C.

Turning to `CCC(C)(C)c1ccc(S(=O)(=O)NCCC2COc3ccc(C(=N)N)cc32)cc1` (stereo not shown) [Example 1aar, 3-{2-[4-(1,1-Dimethylpropyl)benzenesulfonylamino]ethyl}-5-carbamimidoyl-2,3-dihydrobenzofuran], the melting point lay in the range of 52 to 56 °C.

Take “TAP: TAP, cited as example that the mitogenic effect of Factor Xa depends on Factor Xa enzymatic activity (YNRLCIKPRDWIDECDSNEGGERAYFRNGKGGCDSFWICPEDHTGADYYSSYRDCFNACI; ends and bridges not checked; cysteine pairing not given here; UniProt P17726 1-60, looked up)”: the “mitogenesis of cultured vascular smooth muscle cells” value in series [2] and in series [3] was “inhibited the mitogenesis” each time.

The record behind these values is patent publication US6599918B2, “Substituted (aminoiminomethyl or aminomethyl) dihydrobenzofurans and benzopyrans” (Aventis Pharmaceuticals Inc., priority 1999, dated 2003).
